Assay [1] relates to CHO cells expressing CysLT1R, CysLT2R, or P2Y12 receptors. The assay can be described thus: Calcium flux in Fura-2-AM-loaded CHO transfectants. Conditions: LTE4 500 nM, ADP 100 μM; ADP response reflects endogenous P2Y receptors. It counts as cell-based, human. In general terms: Calcium flux is commonly read through the fluorescence of an indicator in the cells.
In assay [2] the test system is human blood platelets. The assay can be described thus: Platelet activation, cytofluorographic detection of P-selectin (CD62P). Conditions: ADP 100 μM or LTE4 1 μM, 10 min. The format is cell-based. On the procedure:
(§1) FIG. 6. […] Each antibody (Ab) was diluted in 50 μl of sterile saline. […] 6A. PAS stains of the lungs of representative mice treated with isotype control (top) or with an anti-CD42 platelet-depleting antibody (bottom). 6B. Inflammation (top) and goblet cell metaplasia (bottom) in the lungs of mice treated with the indicated LT and antibody. A cohort of mice was treated with clopidogrel as indicated. Results in 6B are from a single experiment with 5 mice per group. […] 6C. […] Results are from a single experiment performed three times on different donors.
(§2) Platelets accumulate in the lungs of asthmatic individuals (Jeffery, P. K., et al. 1989. Am. Rev. Respir. Dis. 140:1745-1753), and are also recruited to the lungs of ovalbumin sensitized and challenged mice by an IgE-dependent mechanism (Pitchford, S. C., et al. 2008. Am. J. Respir. Crit. Care Med. 177:604-612).

Assay [3] has as its target human P2Y12 (Homo sapiens, UniProt Q9H244). In words: Binding of cys-LTs to membranes of CHO cells stably expressing the human P2Y12 receptor. Details: polyhistidine (HIS) tag (C); expressed in transfected cells. An excerpt:
A P2Y12 receptor cDNA was amplified by reverse transcriptase polymerase chain reaction (RT-PCR) from RNA extracted from primary hMCs and cloned into a mammalian expression vector. Expression was confirmed by detection of a histidine (HIS) tag by flow cytometry. Another cohort of CHO cells were stably transfected with a P2Y12 receptor construct in reverse orientation as a negative control. […] The cys-LT-induced ERK activation blocked by pre-treatment of the cells with pertussis toxin (PTX), was attenuated by treatment with the P2Y12 receptor-selective antagonist 2-methylthioadenosine monophosphate (2-MesAMP) (FIG. 1C), and was resistant to MK571, an inhibitor that blocks CysLT1R and some P2Y receptors (Mamedova, L., et al. 2005. Biochem. Pharmacol. 71:115-125). […] These responses were resistant to PTX and 2-MesAMP, and susceptible to MK571 in the case of the CysLT1R transfectants.
A human P2Y12 receptor cDNA was amplified by 30 cycles of PCR from reverse-transcribed total RNA extracted from primary cord blood hMCs. The primer sequences were 5′-[…] (SEQ ID NO: 1) and 3′-[…] (SEQ ID NO: 2). The fragment was cloned into a TA vector (INVITROGEN™). After verifying the nucleotide sequence, the fragment was subcloned into the multiple cloning site of the expression vector pEF1/His B, encoding a C-terminal polyhistidine (HIS) tag. A plasmid expressing the P2Y12 receptor construct in the forward orientation were transfected into CHO cells using Fugene HD reagent according to manufacturer's protocol. A construct in the reverse sequence was transfected in parallel as a negative control. […]
[^3H] […] Protein concentration was determined using Biorad Protein Assay Kit. […] The residual membrane-associated [^3H] on the filter was determined in 2 ml scintillation fluid by beta counter (Perkin Elmer). For [^3H]ADP, specific binding was determined by subtracting the amount of [^3H] bound in the presence of 100 μM 2-MesADP from total binding.

For assay [4], the system named is mouse CD42b (GPIbα). In words: Platelet depletion in sensitized mice given LTE4 and low-dose OVA. The following applies: in vivo. On the procedure: as §1, §2
In assay [5] the target is T1, P2Y12 receptors (Mus musculus, UniProt Q9CPV9). Conditions: both antigen doses (3 and 10 μg Der f).
T1 sequence (Q9CPV9 whole entry): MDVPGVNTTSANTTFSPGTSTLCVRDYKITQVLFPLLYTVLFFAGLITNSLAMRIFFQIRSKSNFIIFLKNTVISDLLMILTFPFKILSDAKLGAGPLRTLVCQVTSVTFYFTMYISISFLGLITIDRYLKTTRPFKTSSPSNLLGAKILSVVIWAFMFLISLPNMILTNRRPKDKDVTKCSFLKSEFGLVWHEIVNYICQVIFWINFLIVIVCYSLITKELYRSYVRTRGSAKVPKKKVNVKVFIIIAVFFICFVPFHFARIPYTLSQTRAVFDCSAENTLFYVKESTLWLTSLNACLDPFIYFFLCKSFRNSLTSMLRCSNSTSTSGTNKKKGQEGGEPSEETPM
Description: Role of P2Y12 receptors in inflammation mediated by dust mite allergen. C57BL/6 mice were treated intranasally with the indicated dose of Dermatophagoides farinae (Der f) extract twice weekly for 3 weeks. Animals were euthanized 24 h after the last dose. […] Effect of clopidogrel treatment on bronchovascular inflammation and goblet cell metaplasia in C57BL/6 mice subjected to intranasal challenge with the indicated doses of an extract from the house dust mite. Results are the mean±SEM from 5 mice/group. The experiment was repeated three times with similar results.
To determine whether pharmacologic blockade of P2Y12 receptors altered pulmonary inflammatory responses in a more physiologic model of pulmonary inflammation, C57BL/6 mice were administered an extract of house dust mite Dermatophagoides farinea (Der f) intranasally twice weekly for three weeks, with or without clopidogrel treatment. Two different doses of Der f were used to elicit moderate (at 3 μg) and severe (at 10 μg) inflammation, respectively.
For Der f-mediated pulmonary inflammation, 6-8 week old C57BL/6 mice were lightly anaesthetized and received either 3 or 10 μg of Der f extract (Greer Labs) on days 0, 3, 7, 10, 14 and 17. Some mice received clopidogrel throughout the duration of the experiment. Mice were euthanized 24 h after the last intranasal instillation.
2.5 μm thick glycolmethacrylate sections were stained with H&E for general morphologic examination. […] The extent of cellular infiltration in the bronchovascular bundles was evaluated without knowledge of the particular treatment and was categorized arbitrarily as grade 0=no inflammation, grade 1=mild inflammation, grade 2=moderate inflammation, grade 3=severe inflammation. 15 bronchovascular bundles of each mouse were evaluated. […] The length of basal lamina of corresponding bronchus was measured by Image J (NIH image analysis software). […] The data were expressed as the average of goblet cell counts stained in each bronchus in each section per mm bronchial basal lamina.
In assay [6] the target is T1, P2Y12 receptors. The assay can be described thus: Clopidogrel effect on LTE4-mediated amplification of OVA-induced pulmonary inflammation. The format is in vivo. Details: from tissue; host or cells: whole animal: BALB/c (OVA model) and C57BL/6 (Der f model) mice. As for the experimental part: FIG. 4. […] 4A. […] Clopidogrel (500 μg/ml) was added to the drinking water of the indicated groups of mice for 72 h before the first intranasal dose of LTs, and was maintained throughout the treatment. Results are mean±SEM from at least 9 mice in each group. The experiments were repeated three times with similar results. 4B. PAS stains (left column) from representative mice in the indicated groups showing the effect of clopidigrel on goblet cell metaplasia. Higher magnification images of H & E stains (right) from the same animals showing cellular characteristics of the bronchovascular infiltrates. 4C. Effect of clopidogrel administration on the steady-state expression of IL-13 and MUC5AC mRNA as determined by real-time PCR of whole lung RNA extracted 24 h after the last OVA challenge of the indicated groups. Data are mean±SEM from 4-5 mice/group from a single experiment. Results in a second experiment were similar 4D-4F. […] 4D. Total cell numbers (top), percentages of eosinophils (middle), and total numbers of eosinophils in BAL fluid recovered 24 h after the last challenge with OVA. 4E. Goblet cell metaplasia (top) and representative PAS stains (bottom) from wild-type and p2ry12^−/− mice subjected to the same protocol. 4E. Inflammation scores from the same mice. Data in 4D-4F are from 4 mice per group. Results in a second experiment were similar 4G. BALB/c Cysltr1/Cysltr2^−/− mice and age-matched WT controls were subjected to the same protocol as the p2ry12^−/− mice. Total cell numbers (top), percentages of eosinophils (middle), and total numbers of eosinophils in BAL fluid recovered 24 h after the last challenge with OVA. Results are from 6 mice per group. Three experiments were performed with similar results. 4H. Goblet cell numbers (top) and representative PAS stains (bottom). 4I. Quantitative assessment of bronchovascular inflammation as determined by H & E stains. Results are from 6 mice/group.
FIG. 5. Effect of clopidogrel on LTE4-mediated amplification of pulmonary inflammation. 5A. […] The indicated mice were treated with clopidogrel for 72 h before the first dose of leukotriene. Results are mean±SEM from a minimum of 9 mice in each group. 5B. PAS stains (left column) from representative mice in the indicated groups showing the effect of clopidigrel on goblet cell metaplasia. Higher magnification images of H & E stains (right) from the same animals showing cellular characteristics of the bronchovascular infiltrates. 5C. Effect of clopidogrel administration on the steady-state expression of IL-13 and MUC5AC mRNA as determined by real-time PCR of whole lung RNA extracted 24 h after the last OVA challenge of the indicated groups. Data are mean±SEM from 4-5 mice/group. […]

The test system of assay [7] is P2Y receptor signaling. Conditions: mouse, in vivo; cited from earlier work.
The target of assay [8] is T2, 5-LO (Homo sapiens, UniProt P09917).
T2 sequence (P09917 1-674): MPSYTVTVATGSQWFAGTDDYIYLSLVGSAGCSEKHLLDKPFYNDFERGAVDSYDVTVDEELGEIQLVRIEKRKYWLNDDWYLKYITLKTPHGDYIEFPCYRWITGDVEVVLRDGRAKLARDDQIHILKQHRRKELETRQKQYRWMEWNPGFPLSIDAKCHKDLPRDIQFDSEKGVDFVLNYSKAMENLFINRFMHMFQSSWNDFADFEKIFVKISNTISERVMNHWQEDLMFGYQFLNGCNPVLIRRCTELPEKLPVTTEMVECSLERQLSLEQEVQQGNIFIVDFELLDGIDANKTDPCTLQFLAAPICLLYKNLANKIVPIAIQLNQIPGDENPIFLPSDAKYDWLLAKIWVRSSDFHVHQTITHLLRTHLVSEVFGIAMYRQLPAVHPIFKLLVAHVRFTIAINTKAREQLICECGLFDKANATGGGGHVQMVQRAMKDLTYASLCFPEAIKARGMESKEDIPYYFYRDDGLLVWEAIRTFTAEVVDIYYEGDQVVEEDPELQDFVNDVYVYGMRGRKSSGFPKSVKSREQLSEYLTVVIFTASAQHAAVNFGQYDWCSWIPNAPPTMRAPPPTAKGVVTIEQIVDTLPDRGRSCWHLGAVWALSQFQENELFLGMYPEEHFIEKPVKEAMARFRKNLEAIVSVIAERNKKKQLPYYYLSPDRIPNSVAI
The following applies: cited from earlier work.

Where [9] appears, read: clopidogrel 500 μg/ml in drinking water.

Chain of human P2Y12 (Q9H244 whole entry): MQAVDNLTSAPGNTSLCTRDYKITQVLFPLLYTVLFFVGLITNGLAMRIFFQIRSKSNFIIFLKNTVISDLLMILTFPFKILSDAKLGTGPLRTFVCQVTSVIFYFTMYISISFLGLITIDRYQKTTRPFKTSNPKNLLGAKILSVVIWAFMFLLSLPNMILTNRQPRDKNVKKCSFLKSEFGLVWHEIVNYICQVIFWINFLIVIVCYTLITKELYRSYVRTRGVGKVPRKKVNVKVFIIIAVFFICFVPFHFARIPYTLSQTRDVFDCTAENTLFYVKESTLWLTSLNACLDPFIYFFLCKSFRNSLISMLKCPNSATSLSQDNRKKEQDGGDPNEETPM

In the case of `Nc1ncnc2c1ncn2[C@@H]1O[C@H](COP(=O)(O)OP(=O)(O)O)[C@@H](O)[C@H]1O` [ADP, adenosine diphosphate], the calcium flux result in assay [1] is reported as “did exhibit a response”. Besides, in assay [2], the “CD62P expression by platelets” value was “elicited CD62P expression”.
On to `CCCCC/C=C\C\C=C/C=C/C=C/[C@@H](SC[C@H](NC(=O)CC[C@H](N)C(=O)O)C(=O)NCC(=O)O)[C@@H](O)CCCC(=O)O` [LTC4], for which, in assay [3], the “binding to membranes of the transfectants” value was “also bound”.
Consider `COC(=O)C(c1ccccc1Cl)N1CCc2sccc2C1` (stereo not drawn) [clopidogrel, methyl alpha-5 (4,5,6,7-tetrahydro (3,2-c)thienopyridyl)(2-chlorophenyl)-acetate], for which, in assay [4], the “LTE4-mediated expression of mRNA encoding IL-13 and MUC5AC” value was “sharply reduced”; the “combination of platelet depletion with clopidogrel” value is given as “not additive”. Also, in assay [5], the “attenuation of BAL fluid eosinophilia” value is given as around 75%, the goblet cell metaplasia result was “significant reductions” and the pulmonary inflammation result is reported as “significant reductions”. Moreover, in assay [6] (setting [9]), the “LTE4-induced potentiation of goblet cell metaplasia” value is reported as “complete lack of LTE4-induced potentiation” and the “LTE4-induced potentiation of inflammation” value was “complete lack of LTE4-induced potentiation”. The “lung expression of IL-13 and MUC5AC mRNA (real-time PCR)” value in assay [6] (whole lung RNA 24 h after last OVA challenge) is reported as “substantially suppressed the expression of both”.
On to `Cc1ccc(C(=O)Nc2ccc(S(=O)(=O)O)c3cc(S(=O)(=O)O)cc(S(=O)(=O)O)c23)cc1NC(=O)c1cccc(NC(=O)Nc2cccc(C(=O)Nc3cc(C(=O)Nc4ccc(S(=O)(=O)O)c5cc(S(=O)(=O)O)cc(S(=O)(=O)O)c45)ccc3C)c2)c1` [suramin], for which, in assay [7], the “allergen-induced pulmonary inflammation and AHR” value is reported as “dramatically inhibited”.
In the case of `CC(c1cc2ccccc2s1)N(O)C(N)=O` (stereo not shown) [zileuton], in assay [8], the “block of cys-LT generation in vivo” value is on record as around 50%.
